Results taken from the supplement of paper PMC7108870.

Experiments:
HEK293sieSTAT3(Y640F) [1] = experiment: drug sensitivity score (DSS), viability CellTiter-Glo (DSS (dimensionless)); higher = more growth inhibition; extreme values may be limits of the assay; settings: 72 h; STAT3 variant: Y640F (constitutively active)
Procedure, shortened: (§1)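 HEK293 cells with a STAT3-dependent luciferase reporter, overexpressing either wild-type or mutant STAT3, were dispensed (20 μl at 100,000 cells/ml) into 384-well plates holding compounds acoustically pre-plated at 5 concentrations in 10-fold dilutions. The plates were kept for 72 hours at 37°C and 5% CO2, then CellTox Green fluorescence (485/520 nm) followed by CellTiter-Glo luminescence was read on a PHERAstar FS. Breeze was used to compute a drug sensitivity score from the dose-response curve area after normalisation to negative and positive control wells, and each value comes from one representative of two experiments.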

HEK293sieSTAT3(wt) [2] = experiment: as above; settings: 72 h; STAT3 variant: wild type
Procedure, shortened: as §1

HEK293sieSTAT3(Y640F) [3] = experiment: drug sensitivity score (DSS), cytotoxicity CellTox Green (DSS (dimensionless)); higher = more cytotoxic; extreme values may be limits of the assay; settings: 72 h; STAT3 variant: Y640F (constitutively active)
Procedure, shortened: as §1

HEK293sieSTAT3(wt) [4] = experiment: as above; settings: 72 h; STAT3 variant: wild type
Procedure, shortened: as §1

| Structure (SMILES) | drug sensitivity score (HEK293sieSTAT3(Y640F) [1]) | drug sensitivity score (HEK293sieSTAT3(wt) [2]) | drug sensitivity score (HEK293sieSTAT3(Y640F) [3]) | drug sensitivity score (HEK293sieSTAT3(wt) [4]) |
| --- | --- | --- | --- | --- |
| CC(=O)Nc1ccc(C(=O)Nc2ccccc2N)cc1 [Tacedinaline] (top concentration tested 1000 nM) | 4.27 | 2.27 | 0 | 0 |
| C=CC[C@@H]1/C=C(\C)C[C@H](C)C[C@H](OC)[C@H]2O[C@@](O)(C(=O)C(=O)N3CCCC[C@H]3C(=O)O[C@H](/C(C)=C/[C@@H]3CC[C@@H](O)[C@H](OC)C3)[C@H](C)[C@@H](O)CC1=O)[C@H](C)C[C@@H]2OC [Tacrolimus] (top concentration tested 10000 nM) | 0.22 | 0.73 | 0 | 0 |
| Cn1ncnc1[C@H]1c2n[nH]c(=O)c3cc(F)cc(c23)N[C@@H]1c1ccc(F)cc1 [Talazoparib] (top concentration tested 1000 nM) | 15.9 | 16 | 1.02 | 5.13 |
| C[C@@H]1CN(Cc2ccc(F)cc2)[C@@H](C)CN1C(=O)c1cc2c(C(=O)C(=O)N(C)C)cn(C)c2cc1Cl [Talmapimod] (top concentration tested 10000 nM) | 3.93 | 1.23 | 0 | 0 |
| COc1cc(Nc2ncc(F)c(Nc3ccc4c(n3)NC(=O)C(C)(C)O4)n2)cc(OC)c1OC [Tamatinib] (top concentration tested 10000 nM) | 2.55 | 3.72 | 5.91 | 8.52 |
| CC/C(=C(\c1ccccc1)c1ccc(OCCN(C)C)cc1)c1ccccc1 [Tamoxifen] (top concentration tested 10000 nM) | 4.47 | 5.42 | 2.88 | 8.77 |
| COc1cc2c(N3CCN(C(=O)Nc4ccc(OC(C)C)cc4)CC3)ncnc2cc1OCCCN1CCCCC1 [Tandutinib] (top concentration tested 1000 nM) | 0.33 | 1.99 | 0 | 0 |
| C=CCNC1=C2C[C@@H](C)C[C@H](OC)[C@H](O)[C@@H](C)/C=C(\C)[C@H](OC(N)=O)[C@@H](OC)/C=C\C=C(/C)C(=O)NC(=CC1=O)C2=O [Tanespimycin] (top concentration tested 10000 nM) | 22.1 | 22.6 | 7.34 | 12.8 |
| O[C@H]1CC[C@H](Nc2ncc3nc(Nc4c(F)cc(F)cc4F)n([C@H]4CCOC4)c3n2)CC1 [Tanzisertib] (top concentration tested 10000 nM) | 0 | 2 | 0 | 0 |
| C[C@@H](C(=O)O)c1ccc(-c2ccccc2)c(F)c1 [Tarenflurbil] (top concentration tested 10000 nM) | 0.09 | 0.56 | 0 | 0 |
| Cc1nc(-c2cn3c(n2)-c2ccc(-c4cnn(C(C)(C)C(N)=O)c4)cc2OCC3)n(C(C)C)n1 [Taselisib] (top concentration tested 1000 nM) | 4.03 | 5.32 | 0 | 0.54 |
| COc1cccc2c1c(O)c(C(=O)N(C)c1ccc(C(F)(F)F)cc1)c(=O)n2C [Tasquinimod] (top concentration tested 10000 nM) | 0 | 5.07 | 0 | 0 |
| CCN(c1cc(-c2ccc(CN3CCOCC3)cc2)cc(C(=O)NCc2c(C)cc(C)[nH]c2=O)c1C)C1CCOCC1 [Tazemetostat] (top concentration tested 10000 nM) | 0 | 1.85 | 0 | 0 |
| CNC(=O)c1cc(COc2nnc(Nc3ccc(Cl)cc3)c3ccoc23)ccn1 [Telatinib] (top concentration tested 10000 nM) | 2.07 | 0 | 0 | 2.32 |
| Cn1nnc2c(C(N)=O)ncn2c1=O [Temozolomide] (top concentration tested 100000 nM) | 0 | 0.36 | 0.32 | 0 |
| CO[C@H]1C[C@@H]2CC[C@@H](C)[C@@](O)(O2)C(=O)C(=O)N2CCCC[C@H]2C(=O)O[C@H]([C@H](C)C[C@@H]2CC[C@@H](OC(=O)C(C)(CO)CO)[C@H](OC)C2)CC(=O)[C@H](C)/C=C(\C)[C@@H](O)[C@@H](OC)C(=O)[C@H](C)C[C@H](C)/C=C/C=C/C=C/1C [Temsirolimus] (top concentration tested 100 nM) | 11.2 | 17.6 | 0 | 0 |
| COc1cc([C@@H]2c3cc4c(cc3[C@@H](O[C@@H]3O[C@@H]5CO[C@@H](c6cccs6)O[C@H]5[C@H](O)[C@H]3O)[C@H]3COC(=O)[C@H]23)OCO4)cc(OC)c1O [Teniposide] (top concentration tested 10000 nM) | 29 | 29.6 | 2.03 | 8.89 |
| O=C1CCC(N2C(=O)c3ccccc3C2=O)C(=O)N1 (configuration not stated) [Thalidomide] (top concentration tested 10000 nM) | 4.79 | 2.38 | 0 | 0 |
| S=P(N1CC1)(N1CC1)N1CC1 [Thio-TEPA] (top concentration tested 50000 nM) | 0.14 | 0.48 | 0 | 0 |
| Nc1nc2[nH]cnc2c(=S)[nH]1 [Thioguanine] (top concentration tested 10000 nM) | 9.91 | 9.24 | 0 | 1.43 |
| O=c1sn(-c2cccc3ccccc23)c(=O)n1Cc1ccccc1 [Tideglusib] (top concentration tested 3000 nM) | 2.47 | 0.7 | 0 | 0 |
| Cn1cncc1[C@@](N)(c1ccc(Cl)cc1)c1ccc2c(c1)c(-c1cccc(Cl)c1)cc(=O)n2C [Tipifarnib] (top concentration tested 10000 nM) | 12.3 | 14.8 | 1.51 | 6.86 |

| Structure (SMILES) | drug sensitivity score (HEK293sieSTAT3(Y640F) [1]) | drug sensitivity score (HEK293sieSTAT3(wt) [2]) | drug sensitivity score (HEK293sieSTAT3(Y640F) [3]) | drug sensitivity score (HEK293sieSTAT3(wt) [4]) |
| --- | --- | --- | --- | --- |
| O=C1NC(=O)[C@@H](c2cn3c4c(cccc24)CCC3)[C@@H]1c1c[nH]c2ccccc12 [Tivantinib] (top concentration tested 1000 nM) | 2.71 | 2.4 | 0 | 0.63 |
| COc1cc2nccc(Oc3ccc(NC(=O)Nc4cc(C)on4)c(Cl)c3)c2cc1OC [Tivozanib] (top concentration tested 10000 nM) | 4.07 | 4.13 | 0 | 1.14 |
| C[C@@H]1CCN(C(=O)CC#N)C[C@@H]1N(C)c1ncnc2[nH]ccc12 [Tofacitinib] (top concentration tested 5000 nM) | 0.07 | 0 | 0 | 0 |
| CC[C@@]1(O)C(=O)OCc2c1cc1n(c2=O)Cc2cc3c(CN(C)C)c(O)ccc3nc2-1 [Topotecan] (top concentration tested 10000 nM) | 28.1 | 27 | 8.8 | 13 |
| CN(C)CCOc1ccc(/C(=C(/CCCl)c2ccccc2)c2ccccc2)cc1 [Toremifene] (top concentration tested 10000 nM) | 2.66 | 5.41 | 2.32 | 6.99 |
| CC(C)C[C@@H](C(=O)N[C@H](C(=O)OC1CCCC1)c1ccccc1)[C@H](O)C(=O)NO [Tosedostat] (top concentration tested 10000 nM) | 3.46 | 6.78 | 1.4 | 8.66 |
| Cc1cc(Nc2cc(N3CCN(C)CC3)nc(Sc3ccc(NC(=O)C4CC4)cc3)n2)n[nH]1 [Tozasertib] (top concentration tested 10000 nM) | 10.3 | 12.1 | 0 | 0.22 |
| CC(=O)Nc1cccc(-n2c(=O)n(C3CC3)c(=O)c3c(Nc4ccc(I)cc4F)n(C)c(=O)c(C)c32)c1 [Trametinib] (top concentration tested 250 nM) | 0 | 0 | 1.69 | 0 |
| CC1=C(/C=C/C(C)=C/C=C/C(C)=C/C(=O)O)C(C)(C)CCC1 [Tretinoin] (top concentration tested 10000 nM) | 0 | 0 | 0 | 0 |
| NC(=S)N/N=C/c1ncccc1N [Triapine] (top concentration tested 10000 nM) | 14.7 | 9.19 | 1.5 | 0.84 |
| O=C(CCCCCCC(=O)Nc1ccc([C@H]2O[C@@H](CSc3nc(-c4ccccc4)c(-c4ccccc4)o3)C[C@@H](c3ccc(CO)cc3)O2)cc1)NO [Tubacin] (top concentration tested 10000 nM) | 4.63 | 5.53 | 0.48 | 2.57 |
| CN1CCc2c(c3ccccc3n2Cc2ccc(C(=O)NO)cc2)C1 [Tubastatin A] (top concentration tested 10000 nM) | 8.41 | 8.98 | 5.37 | 7.38 |
| CN[C@@H]1C[C@H]2O[C@@](C)([C@@H]1OC)n1c3ccccc3c3c4c(c5c6ccccc6n2c5c31)C(=O)N[C@H]4O [UCN-01] (top concentration tested 10000 nM) | 28.3 | 29.5 | 3.93 | 9.92 |
| COC(=O)c1ccc2c(c1)[nH]c1ncnc(NCCCN3CCCCC3)c12 [UM729] (top concentration tested 10000 nM) | 8.45 | 6.2 | 0.81 | 4.84 |
| O=C(O)CSc1cc(NS(=O)(=O)c2ccc(Br)cc2)c2ccccc2c1O [UMI-77] (top concentration tested 100000 nM) | 10 | 13.1 | 5.23 | 5.12 |
| COc1cc2c(NC3CCN(C(C)C)CC3)nc(C3CCCCC3)nc2cc1OCCCN1CCCC1 [UNC0638] (top concentration tested 10000 nM) | 5.62 | 7.26 | 6.64 | 7.19 |
| COc1cc2c(NC3CCN(C(C)C)CC3)nc(N3CCC(F)(F)CC3)nc2cc1OCCCN1CCCC1 [UNC0642] (top concentration tested 10000 nM) | 9.29 | 7.97 | 7.41 | 7.38 |
| O=C(c1ccc(C(=O)N2CCC(N3CCCC3)CC2)c(Nc2ccccc2)c1)N1CCC(N2CCCC2)CC1 [UNC1215] (top concentration tested 30000 nM) | 0.33 | 0.89 | 0 | 0 |
| CCCCNc1ncc(C(=O)NCc2ccc(-n3ccnc3)cc2)c(NC2CCC(O)CC2)n1 (configuration not stated) [UNC2881] (top concentration tested 2500 nM) | 5.94 | 4.52 | 0 | 3.59 |
| NC(=O)c1cccc(-c2cccc(OC(=O)NC3CCCCC3)c2)c1 [URB597] (top concentration tested 1000 nM) | 0.03 | 0.37 | 0 | 0 |
| CC(C)Nc1cc(-c2c[nH]c(C(=O)N[C@H](CO)c3cccc(Cl)c3)c2)c(Cl)cn1 [Ulixertinib] (top concentration tested 10000 nM) | 4.62 | 3.95 | 0 | 0 |
